{
  "source": "patent US12310929B2",
  "about": "“Use of rasagiline for the treatment of restless legs syndrome” (TEVA PHARMACEUTICAL INDUSTRIES, LTD., priority 2006, dated 2025)",
  "key": {"RLS subjects [1]": {"test_system": "RLS subjects", "conditions": "for CGI-I Total Mean / CGI-I Total Median: scale 1-7, rasagiline 1 mg/day oral", "experimental": "(§1) This was the first clinical study in which rasagiline was administered to RLS subjects. The dosage regimen of 1 mg/day rasagiline was chosen based on the optimal dosage regimen for the symptomatic treatment of PD. […] Therefore, in the event that a subject could not tolerate the 1 mg daily dose of rasagiline, a daily dose of 0.5 mg rasagiline was permitted. Rasagiline was administered orally as a tablet. Both the 1 mg and 0.5 mg rasagiline tablets were beveled round tablets, flat, white to off-white, scored on one side, plain on the other side. Teva Pharmaceutical Industries Ltd. was responsible for the manufacture and primary packaging of study medications according to current Good Manufacturing Practice (cGMP) principles and guidelines applicable to investigational medicinal products.\nSubjects were scored on this scale at weeks 2, 4, and 8. The mean score at each of these time points was calculated as a secondary efficacy endpoint."}, "RLS subjects [2]": {"test_system": "RLS subjects", "conditions": "rasagiline 1 mg/day oral", "experimental": "as §1\nThe Sleep Scale is a 12-item scale that provides a comprehensive view across almost all dimensions of sleep including daytime somnolence, sleep disturbance, sleep adequacy and sleep quantity. The investigator scored subjects on this scale at the baseline and Week 4, and 8 visits. The change from baseline to each post-baseline study visit was calculated as a secondary efficacy endpoint. (Hays, R. D. & Steward, A. L. (1992). Sleep measures. In A. L. Stewart & J. E. Ware (eds.), Measuring functioning and well-being: The Medical Outcomes Study approach (pp. 235-259), Durham, NC: Duke University Press.\nN is the number of participants in the study. A low score indicates the absence of problems and a high score indicates a very severe problem."}},
  "note": "Read-outs that look alike come from different tables or passages of the source.",
  "data": [
    {"smiles": "C#CCN[C@@H]1CCc2ccccc21", "note": "[rasagiline, R-(+)-N-propargyl-1-aminoindan]", "values": [
      {"measurement": "CGI-I Total Mean", "setting": "RLS subjects [1]; VISIT WEEK 2, N=2", "result": 3.50},
      {"measurement": "CGI-I Total Median", "setting": "RLS subjects [1]; VISIT WEEK 2, N=2", "result": 3.0},
      {"measurement": "CGI-I Total Mean", "setting": "RLS subjects [1]; VISIT WEEK 4, N=2", "result": 3.50},
      {"measurement": "CGI-I Total Median", "setting": "RLS subjects [1]; VISIT WEEK 4, N=2", "result": 3.50},
      {"measurement": "CGI-I Total Mean", "setting": "RLS subjects [1]; VISIT WEEK 8, N=1", "result": 1.00},
      {"measurement": "CGI-I Total Median", "setting": "RLS subjects [1]; VISIT WEEK 8, N=1", "result": 4.00},
      {"measurement": "RLS symptoms on the CGI-I rating scale", "setting": "RLS subjects [1]; by eight weeks, remaining subject", "result": "Very Much Improved"},
      {"measurement": "Optimal Sleep (Absolute Change) Mean", "setting": "RLS subjects [2]; VISIT WEEK 4, N=1", "result": 0.00},
      {"measurement": "Optimal Sleep (Absolute Change) Median", "setting": "RLS subjects [2]; VISIT WEEK 4, N=1", "result": 0.00},
      {"measurement": "Optimal Sleep (Percent Change) Mean", "setting": "RLS subjects [2]; VISIT WEEK 4, N=1", "result": 0.00, "unit": "%"},
      {"measurement": "Optimal Sleep (Percent Change) Median", "setting": "RLS subjects [2]; VISIT WEEK 4, N=1", "result": 0.00, "unit": "%"},
      {"measurement": "Optimal Sleep Scale Mean", "setting": "RLS subjects [2]; VISIT WEEK 4, N=1", "result": 1.00},
      {"measurement": "Optimal Sleep Scale Median", "setting": "RLS subjects [2]; VISIT WEEK 4, N=1", "result": 1.00},
      {"measurement": "Sleep Quantity (Absolute Change) Mean", "setting": "RLS subjects [2]; VISIT WEEK 4, N=1", "result": 0.00},
      {"measurement": "Sleep Quantity (Absolute Change) Median", "setting": "RLS subjects [2]; VISIT WEEK 4, N=1", "result": 0.00},
      {"measurement": "Sleep Quantity (Percent Change) Mean", "setting": "RLS subjects [2]; VISIT WEEK 4, N=1", "result": 0.00, "unit": "%"},
      {"measurement": "Sleep Quantity (Percent Change) Median", "setting": "RLS subjects [2]; VISIT WEEK 4, N=1", "result": 0.00, "unit": "%"},
      {"measurement": "Sleep Quantity (raw score) Mean", "setting": "RLS subjects [2]; VISIT WEEK 4, N=1", "result": 7.00},
      {"measurement": "Sleep Quantity (raw score) Median", "setting": "RLS subjects [2]; VISIT WEEK 4, N=1", "result": 7.00},
      {"measurement": "Sleep Snoring (Percent Change) Mean", "setting": "RLS subjects [2]; VISIT WEEK 4, N=1", "result": 0.00, "unit": "%"},
      {"measurement": "Sleep Snoring (Percent Change) Median", "setting": "RLS subjects [2]; VISIT WEEK 4, N=1", "result": 0.00, "unit": "%"},
      {"measurement": "Short of Breath Scale Mean", "setting": "RLS subjects [2]; VISIT WEEK 4, N=2", "result": 0.00},
      {"measurement": "Short of Breath Scale Median", "setting": "RLS subjects [2]; VISIT WEEK 4, N=2", "result": 0.00},
      {"measurement": "Sleep Adequacy (Absolute Change) Mean", "setting": "RLS subjects [2]; VISIT WEEK 4, N=2", "result": 15.00},
      {"measurement": "Sleep Adequacy (Absolute Change) Median", "setting": "RLS subjects [2]; VISIT WEEK 4, N=2", "result": 15.00},
      {"measurement": "Sleep Adequacy (Percent Change) Mean", "setting": "RLS subjects [2]; VISIT WEEK 4, N=2", "result": 25.00, "unit": "%"},
      {"measurement": "Sleep Adequacy (Percent Change) Median", "setting": "RLS subjects [2]; VISIT WEEK 4, N=2", "result": 25.00, "unit": "%"},
      {"measurement": "Sleep Adequacy Mean", "setting": "RLS subjects [2]; VISIT WEEK 4, N=2", "result": 55.00},
      {"measurement": "Sleep Adequacy Median", "setting": "RLS subjects [2]; VISIT WEEK 4, N=2", "result": 55.00},
      {"measurement": "Sleep Disturbance (Absolute Change) Mean", "setting": "RLS subjects [2]; VISIT WEEK 4, N=2", "result": "−7.50"},
      {"measurement": "Sleep Disturbance (Absolute Change) Median", "setting": "RLS subjects [2]; VISIT WEEK 4, N=2", "result": "−7.50"},
      {"measurement": "Sleep Disturbance (Percent Change) Mean", "setting": "RLS subjects [2]; VISIT WEEK 4, N=2", "result": "−20.00", "unit": "%"},
      {"measurement": "Sleep Disturbance (Percent Change) Median", "setting": "RLS subjects [2]; VISIT WEEK 4, N=2", "result": "−20.00", "unit": "%"},
      {"measurement": "Sleep Disturbance Scale Mean", "setting": "RLS subjects [2]; VISIT WEEK 4, N=2", "result": 33.75},
      {"measurement": "Sleep Disturbance Scale Median", "setting": "RLS subjects [2]; VISIT WEEK 4, N=2", "result": 33.75},
      {"measurement": "Sleep Problems Index I (Absolute Change) Mean", "setting": "RLS subjects [2]; VISIT WEEK 4, N=2", "result": "−6.67"},
      {"measurement": "Sleep Problems Index I (Absolute Change) Median", "setting": "RLS subjects [2]; VISIT WEEK 4, N=2", "result": "−6.67"},
      {"measurement": "Sleep Problems Index I (Percent Change) Mean", "setting": "RLS subjects [2]; VISIT WEEK 4, N=2", "result": "−40.00", "unit": "%"},
      {"measurement": "Sleep Problems Index I (Percent Change) Median", "setting": "RLS subjects [2]; VISIT WEEK 4, N=2", "result": "−40.00", "unit": "%"},
      {"measurement": "Sleep Problems Index I Mean", "setting": "RLS subjects [2]; VISIT WEEK 4, N=2", "result": 26.67},
      {"measurement": "Sleep Problems Index I Median", "setting": "RLS subjects [2]; VISIT WEEK 4, N=2", "result": 26.67},
      {"measurement": "Sleep Problems Index II (Absolute Change) Mean", "setting": "RLS subjects [2]; VISIT WEEK 4, N=2", "result": "−6.67"},
      {"measurement": "Sleep Problems Index II (Absolute Change) Median", "setting": "RLS subjects [2]; VISIT WEEK 4, N=2", "result": "−6.67"},
      {"measurement": "Sleep Problems Index II (Percent Change) Mean", "setting": "RLS subjects [2]; VISIT WEEK 4, N=2", "result": 24.00, "unit": "%"},
      {"measurement": "Sleep Problems Index II (Percent Change) Median", "setting": "RLS subjects [2]; VISIT WEEK 4, N=2", "result": "−24.00", "unit": "%"},
      {"measurement": "Sleep Problems Index II Mean", "setting": "RLS subjects [2]; VISIT WEEK 4, N=2", "result": 33.89},
      {"measurement": "Sleep Problems Index II Median", "setting": "RLS subjects [2]; VISIT WEEK 4, N=2", "result": 33.89},
      {"measurement": "Sleep Short of Breath (Absolute Change) Mean", "setting": "RLS subjects [2]; VISIT WEEK 4, N=2", "result": 0.00},
      {"measurement": "Sleep Short of Breath (Absolute Change) Median", "setting": "RLS subjects [2]; VISIT WEEK 4, N=2", "result": 0.00},
      {"measurement": "Sleep Snoring (Absolute Change) Mean", "setting": "RLS subjects [2]; VISIT WEEK 4, N=2", "result": 0.00},
      {"measurement": "Sleep Snoring (Absolute Change) Median", "setting": "RLS subjects [2]; VISIT WEEK 4, N=2", "result": 0.00},
      {"measurement": "Sleep Somnolence (Absolute Change) Mean", "setting": "RLS subjects [2]; VISIT WEEK 4, N=2", "result": "−0.00"},
      {"measurement": "Sleep Somnolence (Absolute Change) Median", "setting": "RLS subjects [2]; VISIT WEEK 4, N=2", "result": "−0.00"},
      {"measurement": "Sleep Somnolence (Percent Change) Mean", "setting": "RLS subjects [2]; VISIT WEEK 4, N=2", "result": "−20.00", "unit": "%"},
      {"measurement": "Sleep Somnolence (Percent Change) Median", "setting": "RLS subjects [2]; VISIT WEEK 4, N=2", "result": "−20.00", "unit": "%"},
      {"measurement": "Snoring Scale Mean", "setting": "RLS subjects [2]; VISIT WEEK 4, N=2", "result": 40.00},
      {"measurement": "Snoring Scale Median", "setting": "RLS subjects [2]; VISIT WEEK 4, N=2", "result": 40.00},
      {"measurement": "Somnolence Scale Mean", "setting": "RLS subjects [2]; VISIT WEEK 4, N=2", "result": 40.00},
      {"measurement": "Somnolence Scale Median", "setting": "RLS subjects [2]; VISIT WEEK 4, N=2", "result": 40.00},
      {"measurement": "Optimal Sleep (Absolute Change) Mean", "setting": "RLS subjects [2]; VISIT WEEK 8, N=1", "result": 0.00}
    ]}
  ]
}
